Measurements published in US7334580B2, “Methods, devices and formulations for targeted endobronchial therapy” (priority 2003, dated 2008).

Test: Antibiotic aerosol delivery with nebulizer at distal Y position, three nebulizers
Set-up: unit not given here
Details: T-BIRD, continuous
Excerpt: The inhaled mass filter 1040 allows one to do accurate measurements of what delivery amounts are actually reaching the patient 10.
In a second experiment, the arrangements of FIGS. 15A and 15B were used with a single commercially available ventilator (the T-Bird ventilator) together with three different commercially available nebulizers. The nebulizer actuation was examined in the “continuous” mode. The humidity feature for these ventilators was examined by performing the test both when the feature is active and when it is off. An expiratory line filter was also used (not shown). Clearly, the Portex nebulizer performed poorly under these conditions.

[1] = AEROGEN nebulizer, humidity OFF
[2] = AEROTECH nebulizer, humidity OFF
[3] = AEROTECH nebulizer, humidity ON

| Compound | MMAD [1] | MMAD (AEROGEN nebulizer, humidity ON) | MMAD [2] | MMAD [3] | MMAD (PORTEX nebulizer, humidity ON) |
| --- | --- | --- | --- | --- | --- |
| CN[C@H](CC(C)C)C(=O)N[C@H]1C(=O)N[C@@H](CC(N)=O)C(=O)N[C@H]2C(=O)N[C@H]3C(=O)N[C@H](C(=O)N[C@H](C(=O)O)c4cc(O)cc(O)c4-c4cc3ccc4O)[C@H](O)c3ccc(c(Cl)c3)Oc3cc2cc(c3O[C@@H]2O[C@H](CO)[C@@H](O)[C@H](O)[C@H]2O[C@H]2C[C@](C)(N)[C@H](O)[C@H](C)O2)Oc2ccc(cc2Cl)[C@H]1O [VANCOMYCIN, vancomycin] | 2 | 2 | 1.7 | 1.1 | 1.1 |
| gentamicin | 1.1 | 1.2 | 0.9 | 1.3 | 0.9 |
